Experimental data as given in patent publication US20120135417A1, “METHODS FOR SCREENING AND IDENTIFYING COMPOUNDS” (priority 2009, published 2012).
pIC50: −log10 of the molar value.

Tests used:
Format in all cases: biochemical
[1] = test system: TPP riboswitch (B. subtilis tenA operon); test: TPP riboswitch-mediated in vitro transcription termination assay, RiboGreen fluorescence detection; details: FIG. 15; RNA binding fluorophore (RiboGreen) detection, 5 μM each rNTP, 2 mM Mg2+, 3-hour reaction
Description: In vitro plate-based transcription assay: In vitro transcription reactions are carried out at 25° C. in a total reaction volume of 50 μL. Reactions are performed in Reacti-Bind™ Streptavidin High Binding Capacity Coated 96-Well Plates (Pierce, catalog #15502) in assay buffer at a final concentration of 20 mM HEPES at pH 8.0, 60 mM KCl, 0.1 mM EDTA, and 0.005% BSA. To prepare plates, wells are washed three times with successive addition and aspiration of wash buffer containing 25 mM Tris-HCl at pH 7.4 and 150 mM NaCl. Each well is then given assay buffer, followed by addition of FMN into control wells or DMSO into test wells. Enzyme mixture containing sigma-saturated E. coli polymerase (Epicentre Biotechnologies, catolog #S90250) was then added to all wells. The reaction was initiated by the addition of a start mix containing ribonucleotides (Promega, Catalog #P1300), biotinylated oligo (dT)25, magnesium, [α-^33P]-labeled ATP and DNA sequence. […] 50 μl of Microscint™PS (PerkinElmer, catalog #6013631) are then added to wells and the plate is read in a TopCount®NXT™ microplate scintillation and luminescence counter (PerkinElmer). […]

[2] = test system: FMN riboswitch (B. subtilis ribDEAHT operon); test: FMN riboswitch-mediated in vitro transcription termination assay, [α-33P]-ATP radiometric detection
Description: The FMN riboswitch within the leader sequence of the B. subtilis ribDEAHT operon was amplified by PCR from B. subtilis strain 168 (Bacillus Genetic Stock Center—designation 1A1). PCR of a B. subtilis genomic preparation is performed using Platinum® Taq DNA Polymerase High Fidelity from Invitrogen (catalog #11304-011) and the sense PCR and the antisense polyA PCR primers (SEQ ID: NO 1 and 2, or SEQ ID: NO 1 and 3, respectively, as shown in table below). […] These overhangs allow the ligation of DNA into the pCR®2.1-TOPO® vector using a TOPO TA Cloning® kit (Invitrogen catalog #K4500-01). Following transformation, colonies that contained disrupted β-galactosidase are picked and grown overnight. Correct insertion and orientation of PCR product are verified by restriction analysis and sequencing. PCR of the resulting clone is used to generate DNA sequences for use in in vitro transcription termination assays. […]
Synthetic DNA primers and a biotinylated oligo (dT) may be obtained from the Keck Foundation Biotechnology Resource Center at Yale University. […] 50 μl of Microscint™PS (PerkinElmer, catalog #6013631) are then added to wells and the plate is read in a TopCount®NXT™ microplate scintillation and luminescence counter (PerkinElmer). Other readers and counters may be also be used. […]

[3] = test system: FMN riboswitch (B. subtilis ribDEAHT operon); test: FMN riboswitch-mediated in vitro transcription termination assay, RiboGreen fluorescence detection; details: FIG. 14; RNA binding fluorophore (RiboGreen) detection, 10 μM each rNTP, 3 mM Mg2+, 4-hour reaction
E. coli RNA polymerase = target: T1, E. coli RNA polymerase (Escherichia coli, UniProt P0A8V2); test: In vitro plate-based transcription assay, inhibition of RNA polymerase activity (radiometric); details: FIG. 10; 12.5 μM each rNTP, 2.5 mM Mg2+, 0.1 Unit RNA polymerase; read-out: IC50 value for inhibition of the in vitro transcription reaction
T1 construct: purchased Epicentre Biotechnologies S90250
Description: Synthetic DNA primers and a biotinylated oligo (dT) may be obtained from the Keck Foundation Biotechnology Resource Center at Yale University. Flavin mononucleotide (FMN) may be purchased from Fluka BioChemika (catalog #83810). [α-^33P] labeled Adenosine 5′ triphosphate was acquired from American Radiolabeled Chemicals, Inc. (catalog #ARP0131). In vitro plate-based transcription assay: In vitro transcription reactions are carried out at 25° C. in a total reaction volume of 50 μL. […] 50 μl of Microscint™PS (PerkinElmer, catalog #6013631) are then added to wells and the plate is read in a TopCount®NXT™ microplate scintillation and luminescence counter (PerkinElmer). Other readers and counters may be also be used.
The antibacterial rifampin is an RNA polymerase inhibitor (Liu, J., Feldman, P. A., Lippy, J. S., Bobkova, K., Kurilla, M. G, and Chung, T. D. Y., 2001 Analytical Biochemistry, 289, 239-245, Fujii, K., Saito, H., Tomioka, H., Mae, and T., Hosoe, K., 1995 Antimicrobial Agents and Chemotherapy, 39, 1489-1492, Morris, A. B., Brown, R. B., and Sands, M., 1993 Antimicrobial Agents and Chemotherapy 37, 1-7). Rifampin is titrated to inhibit in vitro transcription reaction and its inhibitory IC50 value is determined (FIG. 10). […]

T1 sequence (P0A8V2 whole entry): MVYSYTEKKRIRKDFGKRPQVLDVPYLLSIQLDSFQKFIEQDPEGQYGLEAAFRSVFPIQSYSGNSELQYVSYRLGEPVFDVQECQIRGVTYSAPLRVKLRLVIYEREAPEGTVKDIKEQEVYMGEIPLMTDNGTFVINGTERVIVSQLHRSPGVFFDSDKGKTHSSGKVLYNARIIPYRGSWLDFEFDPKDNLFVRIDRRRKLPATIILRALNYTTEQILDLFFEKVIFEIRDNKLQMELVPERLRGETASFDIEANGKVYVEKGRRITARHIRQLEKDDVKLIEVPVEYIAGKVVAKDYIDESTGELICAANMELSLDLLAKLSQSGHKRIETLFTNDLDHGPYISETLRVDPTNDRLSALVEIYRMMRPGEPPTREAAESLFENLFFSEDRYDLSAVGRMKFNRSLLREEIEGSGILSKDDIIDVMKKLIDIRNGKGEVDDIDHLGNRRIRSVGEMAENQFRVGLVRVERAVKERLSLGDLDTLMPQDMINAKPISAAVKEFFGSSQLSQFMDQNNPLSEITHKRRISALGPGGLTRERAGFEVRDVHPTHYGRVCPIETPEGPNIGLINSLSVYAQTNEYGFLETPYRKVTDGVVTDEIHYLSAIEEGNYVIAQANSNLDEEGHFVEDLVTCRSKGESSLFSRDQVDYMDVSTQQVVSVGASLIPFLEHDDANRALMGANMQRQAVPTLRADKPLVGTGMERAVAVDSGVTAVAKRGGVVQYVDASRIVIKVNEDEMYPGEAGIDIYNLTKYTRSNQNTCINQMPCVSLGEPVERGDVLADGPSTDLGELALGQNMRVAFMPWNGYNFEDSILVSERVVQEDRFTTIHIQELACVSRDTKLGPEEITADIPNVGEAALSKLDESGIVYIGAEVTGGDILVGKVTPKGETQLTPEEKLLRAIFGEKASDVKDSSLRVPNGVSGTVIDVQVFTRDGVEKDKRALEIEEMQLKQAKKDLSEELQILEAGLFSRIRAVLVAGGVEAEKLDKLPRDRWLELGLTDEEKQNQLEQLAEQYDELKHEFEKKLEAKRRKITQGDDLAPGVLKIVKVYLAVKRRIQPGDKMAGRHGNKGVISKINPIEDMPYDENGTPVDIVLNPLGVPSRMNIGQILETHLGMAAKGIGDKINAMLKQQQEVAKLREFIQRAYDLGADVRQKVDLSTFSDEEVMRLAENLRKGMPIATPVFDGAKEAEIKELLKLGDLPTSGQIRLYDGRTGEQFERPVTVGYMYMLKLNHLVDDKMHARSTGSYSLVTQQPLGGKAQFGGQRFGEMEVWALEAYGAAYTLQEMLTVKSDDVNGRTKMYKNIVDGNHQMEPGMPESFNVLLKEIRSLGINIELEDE
T1 sequence (P0A8T7 whole entry partner): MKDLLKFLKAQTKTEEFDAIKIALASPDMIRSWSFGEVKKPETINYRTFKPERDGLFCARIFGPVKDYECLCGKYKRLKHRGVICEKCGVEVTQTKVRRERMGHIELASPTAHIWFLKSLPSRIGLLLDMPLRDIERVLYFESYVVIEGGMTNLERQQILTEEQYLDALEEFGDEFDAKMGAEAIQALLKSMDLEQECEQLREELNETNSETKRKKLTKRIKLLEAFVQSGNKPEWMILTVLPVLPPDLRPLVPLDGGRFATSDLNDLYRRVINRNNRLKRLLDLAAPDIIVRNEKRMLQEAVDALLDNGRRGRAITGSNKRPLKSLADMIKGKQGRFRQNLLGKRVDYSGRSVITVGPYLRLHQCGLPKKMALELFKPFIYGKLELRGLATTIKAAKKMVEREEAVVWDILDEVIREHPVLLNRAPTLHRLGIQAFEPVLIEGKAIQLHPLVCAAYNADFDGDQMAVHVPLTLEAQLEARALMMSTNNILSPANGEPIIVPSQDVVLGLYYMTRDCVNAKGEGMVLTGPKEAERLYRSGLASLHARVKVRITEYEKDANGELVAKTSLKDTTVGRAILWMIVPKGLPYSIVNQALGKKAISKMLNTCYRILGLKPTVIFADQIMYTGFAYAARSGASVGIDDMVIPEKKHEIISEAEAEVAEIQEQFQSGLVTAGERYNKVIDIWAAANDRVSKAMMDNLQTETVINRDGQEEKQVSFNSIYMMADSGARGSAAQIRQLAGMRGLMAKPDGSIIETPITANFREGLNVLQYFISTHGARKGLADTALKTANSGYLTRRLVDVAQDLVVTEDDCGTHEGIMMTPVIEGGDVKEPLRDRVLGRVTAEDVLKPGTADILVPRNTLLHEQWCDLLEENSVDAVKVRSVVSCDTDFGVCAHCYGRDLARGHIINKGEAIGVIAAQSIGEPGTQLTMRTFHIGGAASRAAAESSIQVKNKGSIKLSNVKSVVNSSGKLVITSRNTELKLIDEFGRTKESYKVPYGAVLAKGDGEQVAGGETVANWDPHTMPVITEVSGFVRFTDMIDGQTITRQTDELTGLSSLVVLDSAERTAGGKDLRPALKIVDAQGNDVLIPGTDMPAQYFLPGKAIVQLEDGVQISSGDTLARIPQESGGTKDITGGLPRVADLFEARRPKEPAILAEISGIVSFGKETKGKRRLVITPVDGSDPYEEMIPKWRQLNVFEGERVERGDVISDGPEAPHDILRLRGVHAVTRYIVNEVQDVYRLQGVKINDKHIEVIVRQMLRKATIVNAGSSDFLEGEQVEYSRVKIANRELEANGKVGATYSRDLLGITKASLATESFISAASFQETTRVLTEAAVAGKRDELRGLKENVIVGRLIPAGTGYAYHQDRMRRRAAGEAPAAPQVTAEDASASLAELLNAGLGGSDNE
T1 sequence (P0A7Z4 whole entry partner): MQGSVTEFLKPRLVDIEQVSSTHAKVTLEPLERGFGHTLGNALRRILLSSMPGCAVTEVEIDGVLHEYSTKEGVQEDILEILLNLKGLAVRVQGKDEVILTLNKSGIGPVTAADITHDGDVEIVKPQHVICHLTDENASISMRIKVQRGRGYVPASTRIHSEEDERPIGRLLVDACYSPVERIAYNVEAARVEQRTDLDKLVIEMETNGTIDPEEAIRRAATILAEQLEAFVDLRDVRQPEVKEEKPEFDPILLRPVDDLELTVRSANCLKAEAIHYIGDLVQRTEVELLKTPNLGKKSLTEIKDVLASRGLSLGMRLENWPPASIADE
T1 sequence (P0A800 2-91 partner limits assumed): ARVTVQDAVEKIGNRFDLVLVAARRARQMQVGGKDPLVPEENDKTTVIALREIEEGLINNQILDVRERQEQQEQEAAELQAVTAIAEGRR
T1 sequence (P00579 whole entry partner): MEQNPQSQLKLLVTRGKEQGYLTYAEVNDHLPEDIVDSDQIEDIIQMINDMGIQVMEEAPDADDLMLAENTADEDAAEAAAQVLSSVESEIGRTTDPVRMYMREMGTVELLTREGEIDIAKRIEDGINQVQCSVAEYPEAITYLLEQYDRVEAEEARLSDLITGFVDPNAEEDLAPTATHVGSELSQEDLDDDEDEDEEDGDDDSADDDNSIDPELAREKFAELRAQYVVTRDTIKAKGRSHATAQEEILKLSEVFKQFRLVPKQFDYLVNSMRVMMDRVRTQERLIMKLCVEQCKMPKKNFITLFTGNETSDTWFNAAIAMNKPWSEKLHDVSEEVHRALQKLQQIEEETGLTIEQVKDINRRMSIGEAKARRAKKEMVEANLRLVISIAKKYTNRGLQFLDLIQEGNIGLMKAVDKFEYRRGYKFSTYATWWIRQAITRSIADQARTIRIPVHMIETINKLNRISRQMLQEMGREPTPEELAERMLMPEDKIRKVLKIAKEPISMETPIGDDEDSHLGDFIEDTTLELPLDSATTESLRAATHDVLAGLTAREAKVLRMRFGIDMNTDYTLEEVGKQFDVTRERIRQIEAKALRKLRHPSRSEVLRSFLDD

Row | SMILES | pIC50 [1] | pIC50 [3] | also measured
1 | Cc1ncc(C[n+]2csc(CCO[P@](=O)(O)OP(=O)(O)O)c2C)c(N)n1 [TPP, Thiamine pyrophosphate] | 6.77 |  | 
2 | Cc1cc2nc3c(=O)[nH]c(=O)nc-3n(C[C@H](O)[C@H](O)[C@H](O)COP(=O)(O)O)c2cc1C [FMN, Flavin mononucleotide] |  | 6.94 | Signal (cpm) of captured polyA full-length transcript ([2]; FIG. 5A, 100 μM FMN versus no FMN, DNA sequence encoding a polyA sequence): significant decrease in signal; pIC50 ([2]; FIG. 11, 12.5 μM each rNTP, 2.5 mM Mg2+, 0.1 Unit RNA polymerase, radiolabel detection): 7.35
3 | CO[C@H]1/C=C/O[C@@]2(C)Oc3c(C)c(O)c4c(O)c(c(/C=N/N5CCN(C)CC5)c(O)c4c3C2=O)NC(=O)/C(C)=C\C=C\[C@H](C)[C@H](O)[C@@H](C)[C@@H](O)[C@@H](C)[C@H](OC(C)=O)[C@@H]1C [rifampin] |  |  | pIC50 (E. coli RNA polymerase): 8.09
4 | Cc1ncc(C[n+]2csc(CCOP(=O)(O)O)c2C)c(N)n1 [TMP, Thiamine monophosphate] | < 4.60 |  | 
5 | Cc1cc2nc3c(=O)[nH]c(=O)nc-3n(C[C@H](O)[C@H](O)[C@H](O)CO)c2cc1N(C)C [roseoflavine, roseoflavin] |  | < 4.00 | 
